Laboratory results taken from patent publication US7307100B2, “2-Benzoylchromone derivatives” (Merck Patent GmbH, priority 2002, dated 2007).

Experiments:
PKB = PKB (Homo sapiens, UniProt P31749); experiment: Inhibition of PKB (serine/threonine kinase); assay type: biochemical; settings: read-out: Inhibition of PKB expressed in IC50
Procedure: (§1) The 2-benzoylchromone derivatives were tested as tyrosine kinase inhibitors (see Table 1: Inhibition of TIE-2), but also as serine/threonine kinase inhibitors (see Table 1: PKB).

TIE-2 = TIE-2 (Homo sapiens, UniProt Q02763); experiment: Inhibition of TIE-2 (tyrosine kinase); assay type: biochemical; settings: read-out: Inhibition of TIE-2 expressed in IC50
Chain of TIE-2 (Q02763 23-1124): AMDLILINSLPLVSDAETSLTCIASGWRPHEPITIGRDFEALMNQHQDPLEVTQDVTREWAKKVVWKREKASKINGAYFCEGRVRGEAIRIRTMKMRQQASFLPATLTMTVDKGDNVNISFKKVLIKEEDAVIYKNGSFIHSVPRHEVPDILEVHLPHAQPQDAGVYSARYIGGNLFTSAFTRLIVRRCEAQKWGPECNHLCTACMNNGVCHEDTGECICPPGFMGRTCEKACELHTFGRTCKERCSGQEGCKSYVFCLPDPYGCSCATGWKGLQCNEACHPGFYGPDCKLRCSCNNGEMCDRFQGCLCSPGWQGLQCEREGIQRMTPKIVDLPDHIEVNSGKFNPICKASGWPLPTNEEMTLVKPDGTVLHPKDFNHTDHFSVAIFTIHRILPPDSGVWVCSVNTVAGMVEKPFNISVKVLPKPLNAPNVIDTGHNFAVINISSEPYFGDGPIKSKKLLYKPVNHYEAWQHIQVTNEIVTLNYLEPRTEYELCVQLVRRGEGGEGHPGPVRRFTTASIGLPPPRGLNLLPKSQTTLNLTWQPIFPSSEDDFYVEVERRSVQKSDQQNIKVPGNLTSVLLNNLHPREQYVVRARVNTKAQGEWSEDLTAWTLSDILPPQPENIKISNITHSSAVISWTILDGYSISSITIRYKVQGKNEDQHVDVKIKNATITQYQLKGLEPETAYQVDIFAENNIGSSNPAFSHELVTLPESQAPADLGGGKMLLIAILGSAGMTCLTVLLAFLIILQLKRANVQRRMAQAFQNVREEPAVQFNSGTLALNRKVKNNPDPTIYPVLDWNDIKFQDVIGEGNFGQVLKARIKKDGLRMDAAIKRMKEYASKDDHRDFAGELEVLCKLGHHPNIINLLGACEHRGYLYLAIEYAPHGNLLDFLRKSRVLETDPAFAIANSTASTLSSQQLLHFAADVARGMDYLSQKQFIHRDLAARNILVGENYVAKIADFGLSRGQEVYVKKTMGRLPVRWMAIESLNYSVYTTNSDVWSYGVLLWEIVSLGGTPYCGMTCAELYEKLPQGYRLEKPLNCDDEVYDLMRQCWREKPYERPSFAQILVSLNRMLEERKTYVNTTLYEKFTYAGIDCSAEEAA
Procedure: as §1

Chain of PKB (P31749 whole entry): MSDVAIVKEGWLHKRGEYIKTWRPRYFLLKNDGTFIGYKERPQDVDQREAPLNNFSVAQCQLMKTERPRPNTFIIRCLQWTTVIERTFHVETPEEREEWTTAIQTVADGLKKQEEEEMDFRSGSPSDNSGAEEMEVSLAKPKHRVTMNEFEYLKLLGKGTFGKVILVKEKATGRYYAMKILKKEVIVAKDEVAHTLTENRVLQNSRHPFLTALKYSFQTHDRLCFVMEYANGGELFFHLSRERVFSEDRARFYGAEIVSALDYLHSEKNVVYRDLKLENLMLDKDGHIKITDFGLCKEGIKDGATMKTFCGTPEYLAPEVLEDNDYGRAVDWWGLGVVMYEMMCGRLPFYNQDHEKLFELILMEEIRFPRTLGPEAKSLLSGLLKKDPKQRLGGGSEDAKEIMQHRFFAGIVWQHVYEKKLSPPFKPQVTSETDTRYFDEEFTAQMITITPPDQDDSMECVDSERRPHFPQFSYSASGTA

IC50 (PKB) [µM]	IC50 (TIE-2) [µM]	SMILES
> 30	3.6	O=C(c1cc(=O)c2cc3c(cc2o1)OCO3)c1cc2c(cc1O)OCO2 [6,7-methylenedioxy-2-(2′-hydroxy-4′,5′-methylenedioxybenzoyl)chromone]
> 30	> 10	O=C(c1cc(=O)c2c(O)cccc2o1)c1ccc(O)cc1O [5-hydroxy-2-(2′,4′-dihydroxybenzoyl)chromone]
> 30	> 10	O=C(c1cc(=O)c2cc(O)ccc2o1)c1cc2c(cc1O)OCO2 [6-hydroxy-2-(2′-hydroxy-4′,5′-methylenedioxybenzoyl)chromone]
